Patent US6579696B1, “Polymyxin B conjugates” (priority 1992, dated 2003)
Converted amounts (≈) assume the structure as drawn. Like-named read-outs stand apart in the source and are kept apart here. Ends that are not written are not given here.

Assays:
[1] = system: Salmonella 34576; details: Table 43
[2] = system: E. coli 25922; format: cell-based; details: Table 42
[3] = system: E. coli H16
[4] = system: E. coli 25922
[5] = system: E. coli 0111:B4
[6] = system: E. coli H16; format: cell-based; details: Table 42
[7] = molecular target: polymyxin B-cysteine-maleimide-fluorescein (PMB-Cys-Mal-FL) (Bacillus polymyxa); test: quenching of PMB-Cys-Mal-FL coated on E. coli 0111:B4; antibody 2 ug/ml (without antibody: 40)
[8] = molecular target: polymyxin B-cysteine-maleimide-fluorescein (PMB-Cys-Mal-FL) (Bacillus polymyxa); test: quenching of PMB-Cys-Mal-FL coated on E. coli 0111:B4; antibody 1 ug/ml (without antibody: 40)
[9] = molecular target: polymyxin B-cysteine-maleimide-fluorescein (PMB-Cys-Mal-FL) (Bacillus polymyxa); test: fluorescence intensity of PMB-Cys-Mal-FL with antibody
[10] = molecular target: polymyxin B-cysteine-maleimide-fluorescein (PMB-Cys-Mal-FL) (Bacillus polymyxa); test: fluorescence polarization, antibody 5×10^-8 M with PMB-Cys-Mal-FL 10^-7 M (free conjugate: 740)
[11] = molecular target: polymyxin B-cysteine-maleimide-fluorescein (PMB-Cys-Mal-FL) (Bacillus polymyxa); test: fluorescence polarization, antibody 5×10^-8 M with PMB-Cys-Mal-FL 10^-7 M (free conjugate: 845)
[12] = molecular target: polymyxin B-cysteine-maleimide-fluorescein (PMB-Cys-Mal-FL) (Bacillus polymyxa); test: fluorescence polarization, antibody 5×10^-8 M with PMB-Cys-Mal-FL 10^-7 M (free conjugate: 32.5 mP)
[13] = molecular target: polymyxin B-cysteine-maleimide-fluorescein (PMB-Cys-Mal-FL) (Bacillus polymyxa); test: quenching of PMB-Cys-Mal-FL coated on E. coli 0111:B4; antibody 22 ug/ml (without antibody: 40)
[14] = molecular target: polymyxin B-cysteine-maleimide-fluorescein (PMB-Cys-Mal-FL) (Bacillus polymyxa); test: fluorescence quenching on PMB-Cys-Mal-FL coated E. coli
[15] = molecular target: Fc receptors of the human U937 monocyte/macrophage cell line (human); test: saturation binding of 125I-IgG to 2×10^5 U937 cells
[16] = molecular target: Fc receptors of the human U937 monocyte/macrophage cell line (human); test: 1×10^-8 M 125I-IgG on 2×10^5 U937 cells, no competitor
[17] = system: E. coli HB101; test: MIC and MBC in broth; format: cell-based; details: Example 38
[18] = system: J5 bacteria phagocytosed by J774A.1 mouse macrophage cell line; format: cell-based; details: Table 57; + anti-avidin (1/1000)
[19] = system: E. coli J5; format: cell-based; design: key: −: no agglutination; +: microagglutination; +++: macroagglutination; details: for Agglutination by avidin beads: Table 53
Protocol: (§1) 100 ul polystyrene beads (Spherotech […], 5% w/v) were aliquoted to two 1.5 mL microcentrifuge tubes, centrifuged 1 min at 12,000 g in microcentrifuge and washed 2×with 1 ml PBS (vortexed and recentrifuged 1-2 min after each wash). The beads were resuspended in 900 ul PBS, and 100 ul of 1 mg/ml solution of avidin (Sigma) added, and the tubes rotated overnight at room temperature. The beads were pelleted, and washed sequentially as described above with 1 ml PBS, PBS+0.5% tween 20 (PBST), and PBS, and each sample resuspended in 200 ul PBS. The samples were pooled and stored at 4 degrees.
(§2) 20 ul avidin coated beads were aliquoted into 2×1.5 ml microcentrifuge tubes, and non-specifically binding sites blocked by rotating with 1 ml PBS+1% BSA for 1 hr at room temperature. […] The samples were pelleted, and washed with 1 ml PBS, repelleted and resuspended with 20 ul PBS. III Bacterial Agglutination Assays
(§3) 5 ul of each resin was added to 20 ul bacteria (1/10 dilution of a saturated overnight culture) in independant depression wells (2 wells/bacteria tested). The samples were incubated 30 min at 37 degrees, swirled, and agglutination scored. (Note that −=no agglutination, +=microagglutination and +++=macroagglutination)
To determine if free Immunoadaptor™ compounds can also stably bind surface exposed bacterial structures, agglutination assays were performed using bacteria prebound to Immunoadaptor™ compounds. The assay was performed with J5 bacteria, since the agglutination signal (see table above) was the strongest with this strain. 40 ul avidin coated resin was blocked for 1 hr at room temperature with 1 ml PBS+1% BSA, pelleted as described above, and resuspended in 40 ul PBS. […] The following assays were performed:
Incubated 1 hr at 37 degrees in depression well, swirled and agglutination scored.
Incubated 10 min at 37 degrees then added 5 ul avidin coated beads. Incubated 1 hr at 37 degrees in depression well, swirled and agglutination scored.
Incubated 15 min at 37 degrees, pelleted cells by centrifugation, washed with 100 ul PBS (resuspended cells with micropipetter) and repelleted. Cells were resuspended in 80 ul PBS, 20 ul aliquots distributed to depression well, 5 ul avidin coated beads added, and, incubated 1 hr at 37 degrees, swirled and agglutination scored.

[20] = molecular target: avidin and chicken anti-PMB antibody (Gallus gallus, UniProt P02701)
Sequence of avidin and chicken anti-PMB antibody (P02701 25-152): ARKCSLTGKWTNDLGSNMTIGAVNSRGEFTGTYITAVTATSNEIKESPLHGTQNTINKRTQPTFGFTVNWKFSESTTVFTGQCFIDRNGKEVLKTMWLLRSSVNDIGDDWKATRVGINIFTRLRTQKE
Protocol: The capture ELISA was performed as described below. […] The coating suspensions were decanted, and all wells were washed three times using PBS+0.5% Tween 20 (PBST). In order to block non-specific binding sites, 100 ul of 1% BSA (Sigma, St. Louis, Mo.) in PBS (blocking solution) was then added to each well, and the plates were incubated for 1 hr. at 37° C.
The blocking solution was decanted, and duplicate samples of 150 ul of either PMB-Cy-Biotin or PMB-Cy-Fl added to the first well of a dilution series. The initial testing concentration of the premixed conjugate was 10 ng/ml in blocking buffer (see above), followed by 5 fold dilutions in blocking buffer. This was accomplished by serially transferring 30 ul aliquots to 120 ul buffer, mixing, and repeating the dilution into a fresh well. After the final dilution, 30 ul was removed from the well such that all wells contained 120 ul final volume. A total of 2 such dilutions were performed. […] Following this incubation, the serially diluted samples were decanted, and the wells were washed six times using PBST (Phosphate-Buffered Saline with Tween). To each well, 100 ul of 1/1000 diluted chicken anti-PMB antibody or chicken preimmune, diluted in blocking buffer was added, and the plate incubated 1 hr at 37° C. The antibody solutions were decanted and the plates were washed as described above. To each well, 100 ul of 1/1000 diluted rabbit anti-chicken IgG alkaline phosphatase (Sigma) diluted in blocking buffer was added, and the plate incubated 1 hr at 37° C. The antibody solutions were decanted and the plates were washed as described above, substituting 50 nM Na2CO3, pH 9.5 for the PBST in the final wash. The plates were developed by the addition of 100 ul of a solution containing 1 mg/ml para-nitro phenyl phosphate (Sigma, St. Louis, Mo.) dissolved in 50 nM Na2CO3, 10 mM MgCl2, pH 9.5 to each well, and incubating the plates at room temperature in the dark overnight. […] Only the ELISA readings from the maximally diluted samples in each dilution series are shown.

[21] = system: E. coli HB101; format: cell-based; design: key: −: no agglutination; +: microagglutination; +++: macroagglutination; details: avidin beads loaded with compound
Protocol: as §1, §2, §3

[22] = system: Salmonella 34576; format: cell-based; design: key: −: no agglutination; +: microagglutination; +++: macroagglutination; details: avidin beads loaded with compound
Protocol: as §1, §2, §3

[23] = system: E. coli 0111:B4; format: cell-based; design: key: −: no agglutination; +: microagglutination; +++: macroagglutination; details: avidin beads loaded with compound
Protocol: as §1, §2, §3

[24] = molecular target: avidin (Sigma) (UniProt P02701); test: capture ELISA: PMB-Cys-Biotin on avidin-coated wells, detected with chicken anti-PMB 1/1000; maximally diluted sample of a 5-fold series from 10 ng/ml
Sequence of avidin (Sigma) (P02701 25-152 limits assumed): as the sequence (P02701 25-152) above

[25] = vancomycin after reaction with crosslinker, aqueous solution
Excerpt: Vancomycin in phosphate buffer was reacted with each of the following compounds: sulfosuccinimidyl 6-[3-(2-pyridyldithio)propionamide]hexanoate (“sulfo-LC-SPDP”), m-maleimidobenzoyl-N-hydroxysulfosuccinimide ester (“sulfo-MBS”), sulfosuccinimidyl(4-iodoacetyl)aminobenzoate (“sulfo-SIAB”), and sulfosuccinimidyl 4-(p-maleimidophenyl)butyrate (“sulfo-SMPB”). All four crosslinking agents react with a primary amino group on the vancomycin molecule, resulting in the formation of an amide bond. […] Finally, vancomycin derivatized by sulfo-SIAB posesses an iodo group, which can also react with a sulfhydryl group on either reduced IgG or derivatized IgG, by nucleophilic substitution for the iodo group. […] The mixtures were incubated with agitation at ambient temperature.

[26] = system: S. aureus; test: MIC testing against S. aureus; format: cell-based, Staph. aureus; details: Staphylococcus aureus
Protocol: 1.5 ml fractions were collected. The fractions in the void volume were pooled and sterile filtered. The activity of the conjugate was determined by standard MIC testing against S. aureus.

[27] = system: Staphylococcus epidermidis; test: MIC and MBC; format: cell-based
[28] = molecular target: avidin (Sigma) (UniProt P02701); test: capture ELISA: PMB-Cys-FL on avidin-coated wells, chicken preimmune 1/1000 (double control)
[29] = molecular target: avidin (Sigma) (UniProt P02701); test: capture ELISA: PMB-Cys-FL on avidin-coated wells, detected with chicken anti-PMB 1/1000
[30] = system: K. pneumoniae LPS; test: Polarization of PMB-FITC by LPS; format: binding; details: 50 ul of 1 mg/ml LPS; PMB-FITC 1 to 150
[31] = system: P. aeruginosa LPS; test: Polarization of PMB-FITC by LPS; format: binding; details: 50 ul of 1 mg/ml LPS; PMB-FITC 1 to 150
[32] = system: S. marsecens LPS; test: Polarization of PMB-FITC by LPS; format: binding; details: 50 ul of 1 mg/ml LPS; PMB-FITC 1 to 150
[33] = system: E. coli HB101
[34] = system: E. coli 026B6 LPS; format: binding; details: 50 ul of 1 mg/ml LPS; PMB-FITC 1 to 150
Excerpt: (§4) The data for this example were generated on a fluorescence polarimeter (FPM-1, provided by Jolley Consulting and Research, Inc.) based on this optical configuration. The instrument and software generates output which includes vertical intensity (IV), horizontal intensity (IH), total intensity (IT) after correction of horizontal intensity by a constant (g), fluorescence polarization in millipolarization unit (mP) and lamp feed-back, a correction for lamp and photomultiplier tube variations.
(§5) Each of ten different lipopolysaccarides (LPS) were dissoved in distilled water at a concentration of 1 mg/ml.

[35] = system: V. cholera LPS; format: binding; details: 50 ul of 1 mg/ml LPS; PMB-FITC 1 to 150
Excerpt: as §4, §5

[36] = system: S. flexneri LPS; format: binding; details: 50 ul of 1 mg/ml LPS; PMB-FITC 1 to 150
Excerpt: as §4, §5

[37] = system: E. coli 011B4 LPS; format: binding; details: 50 ul of 1 mg/ml LPS; PMB-FITC 1 to 150
Excerpt: as §4, §5

[38] = system: S. enteriditis LPS; test: Polarization of PMB-FITC by LPS; format: binding; details: 50 ul of 1 mg/ml LPS; PMB-FITC 1 to 150
[39] = system: S. typhimurium LPS; test: Polarization of PMB-FITC by LPS; format: binding; details: 50 ul of 1 mg/ml LPS; PMB-FITC 1 to 150
[40] = system: R. sphaeroides LPS; test: Polarization of PMB-FITC by LPS; format: binding; details: 50 ul of 1 mg/ml LPS; PMB-FITC 1 to 150
[41] = Table 40, first number of the cell

ALYKKLLKKLLKSAKKLG [C18G, ala-leu-tyr-lys-lys-leu-leu-lys-lys-leu-leu-lys-ser-ala-lys-lys-leu-gly, reference compound]
MIC [1]: 5 to 10 µg/mL
BDA [2]: 1 µg/mL
MIC [3]: 30 µg/mL
MIC [4]: 2 to 4 µg/mL
MIC ([5]; 0111:B4): 10 µg/mL
BDA [6]: 5 to 10 µg/mL

mouse monoclonal anti-fluorescein antibody (#4-4-20)
FLUORESCENCE (AFU) [7]: 15 AFU
FLUORESCENCE (AFU) [8]: 16 AFU
percent of the intensity signal quenched [9]: 95%
IH (horizontal intensity) [10]: 25
IV (vertical intensity) [11]: 61
mP (millipolarization) [12]: 390 mP
FLUORESCENCE (AFU) [13]: 15 AFU
fraction of fluorescein available to bind the antibody [14]: 0.67

125I-labelled human IgG (New England Nuclear) (antibody)
saturating concentration [15]: 10 nM
bound radioactivity (cpm) [16]: 12000 cpm

Limulus antilipopolysaccharide factor [native LALF]
MIC [17]: 16 µg/mL

Biotinylated Cysteinyl PMB [PMB-Cys-Biotin]
% Macrophage with phagocytosed bacteria [18]: 21%
Recovered bacterial colonies [18]: 74
Agglutination by avidin beads ([19]; Chase format): +
Agglutination by avidin beads ([19]; Premix format): +
Agglutination by avidin beads ([19]; Wash + Chase format): +
Agglutination ([19]; avidin beads loaded with compound): +++
ELISA absorbency at 410 nm ([20]; Anti-PMB test antibody, Avidin coated wells, maximally diluted sample): 1.252
ELISA absorbency at 410 nm ([20]; Anti-PMB, PBS coated wells): 0.016
ELISA absorbency at 410 nm ([20]; Preimmune, Avidin coated wells): 0.014
ELISA absorbency at 410 nm ([20]; Preimmune, PBS coated wells): 0.019
MIC [5, 41]: 1.0 µg/mL
Agglutination [21]: +
Agglutination [22]: +
Agglutination [23]: −

Biotinylated Cysteinyl PMB (PMB-Cys-Biotin) (peptide)
absorbance at 410 nm [24]: 1.25 A410

CN[C@H](CC(C)C)C(=O)N[C@H]1C(=O)N[C@@H](CC(N)=O)C(=O)N[C@H]2C(=O)N[C@H]3C(=O)N[C@H](C(=O)N[C@H](C(=O)O)c4cc(O)cc(O)c4-c4cc3ccc4O)[C@H](O)c3ccc(c(Cl)c3)Oc3cc2cc(c3O[C@@H]2O[C@H](CO)[C@@H](O)[C@H](O)[C@H]2O[C@H]2C[C@](C)(N)[C@H](O)[C@H](C)O2)Oc2ccc(cc2Cl)[C@H]1O [Vanco, Vancomycin]
Soluble [25]: Yes
MIC [26]: 1 to 2 µg/mL (≈ 0.69 to 1.38 µM)
MIC ([26]; read-out: MIC w/o IgG): 1 µg/mL (≈ 0.69 µM)
MBC [27]: 2.5 µg/mL (≈ 1.73 µM)

polymyxin B-cysteine-maleimide-fluorescein (PMB-Cys-Mal-FL) (peptide)
absorbance at 410 nm [28]: 0.01 A410
absorbance at 410 nm [29]: 0.033 A410

PMB-5-Thiocabamoyl-fluorescein [PMB-FITC]
mP [30]: 258.5
mP [31]: 236.4
mP [32]: 262.6
MIC [33, 41]: 0.2 µg/mL
MIC ([33]; Table 44): 0.2 µg/mL
mP [34]: 70.3
mP [35]: 174.8
mP [36]: 246.3
mP [37]: 254.6
mP [38]: 255.9
mP [39]: 266.8
mP [40]: 224.7
